The values that follow come from publication PMC5104425, “A Novel Selective Inhibitor of Delta-5 Desaturase Lowers Insulin Resistance and Reduces Body Weight in Diet-Induced Obese C57BL/6J Mice” (PLoS ONE, 2016).

The structures appear in SMILES notation.

The subject of one assay is DIO mice. Put plainly: Established DIO mice (HFD D12079B for 50 weeks), 11-week treatment: BW, calorie intake, fat mass. In kind it is in vivo, C57BL/6J mice. On the procedure:
In this report, we performed 3 independent studies in DIO mice to characterize anti-obesity effects of our D5D specific inhibitor. Male C57BL/6J mice were obtained from Charles River Laboratories (Yokohama, Japan) or CLEA Japan (Osaka, Japan). The mice were fed a laboratory chow and water ad libitum and housed in a 12-h light/dark cycle. Compound or vehicle was administered once daily between 15: 00–19:00 by oral gavage. Body weight (BW) and food intake were monitored throughout the experiment.
To evaluate the effect on daily EE, DIO mice fed a HFD that has 41% kcal from fat and contains no AA (D12079B; Research diets, Inc., see S1 Table for fatty acids composition) for 50 weeks were used. At 55 weeks of age, DIO mice were divided into two weight-matched groups (7 animals per group) and treated with vehicle or 10 mg/kg compound-326 for 11 weeks. […] Indirect calorimetry test was performed on day1, 8, 15, 21, and 56 during the study. Daily EE was analyzed using ANCOVA with body mass as covariate. After the treatment period, mice were sacrificed and fat tissues were harvested to evaluate the weights.

In a further assay the target is T1, rat D6D (Rattus norvegicus, UniProt Q9Z122).
T1 construct: using hepatic microsomes prepared from SD rats; from tissue; host or cells: liver microsomes of SD rats (CLEA, Japan)
T1 sequence (Q9Z122 whole entry): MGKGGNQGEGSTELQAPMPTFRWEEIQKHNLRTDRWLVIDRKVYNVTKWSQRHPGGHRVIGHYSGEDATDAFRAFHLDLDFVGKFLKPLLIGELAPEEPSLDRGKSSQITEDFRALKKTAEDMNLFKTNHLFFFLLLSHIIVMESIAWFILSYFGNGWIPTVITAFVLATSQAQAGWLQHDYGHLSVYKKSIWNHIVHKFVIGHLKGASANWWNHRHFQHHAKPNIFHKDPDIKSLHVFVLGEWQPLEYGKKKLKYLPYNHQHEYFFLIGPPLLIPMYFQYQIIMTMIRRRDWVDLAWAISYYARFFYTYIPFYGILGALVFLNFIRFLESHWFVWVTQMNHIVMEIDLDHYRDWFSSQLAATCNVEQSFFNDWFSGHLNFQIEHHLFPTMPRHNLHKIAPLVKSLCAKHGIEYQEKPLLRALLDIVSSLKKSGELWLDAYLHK
Put plainly: In vitro enzyme assay for desaturase activity (hepatic microsomes), D6D. In kind it is biochemical. The protocol:
(§1) Therefore, we also confirmed that compound-326 has no effect on D9D activity. Inhibitory activity of compound-326 on rat D5D, D6D, and D9D was evaluated using hepatic microsomes prepared from SD rats (CLEA, Japan) as described previously. Assays were performed in a total volume of 30 μL in 96-well plates in a buffer containing 100 mM NaHPO4, 150 mM KCl, 10 mM NaF, 1.5 mM glutathione, 3 mM MgCl2, 1 mM NADH, 3 mM ATP, 0.3 mM CoA-SH, and 0.1% fatty acid free bovine serum albumin (BSA, Sigma, St. Louis, MO); and 0.1 μCi/well of [^14C] DGLA or [^14C] linoleic acids (ARC, St. Louis, MO) were used as substrates for measuring D5D and D6D activities, respectively. After pre-incubation of the test compound with rat liver microsomes (final 1.0 mg/mL) for 5 min, the reaction was started by the addition of NADH, ATP, and the substrates, and the reaction mixture was incubated for another 120 min at room temperature. For D9D assay, [^14C] stearoyl-CoA (PerkinElmer, Waltham, MA) was used in the absence of NADH, ATP, and CoA-SH, and D9D enzyme reaction was performed for 30 min. The reactions were then terminated by the addition of 0.63 N NaOH. […] 2.3 (Fujifilm) and IC50 values were determined using the conversion ratio from the radioactive substrates (20:3n6, 18:2n6 and 18:0) to the products (20:4n6, 18:3n6 and 18:1n9).

In the next assay the target is T2, human D5D (Homo sapiens, UniProt O60427).
T2 construct: endogenous in cells; host or cells: HepG2
T2 sequence (O60427 whole entry): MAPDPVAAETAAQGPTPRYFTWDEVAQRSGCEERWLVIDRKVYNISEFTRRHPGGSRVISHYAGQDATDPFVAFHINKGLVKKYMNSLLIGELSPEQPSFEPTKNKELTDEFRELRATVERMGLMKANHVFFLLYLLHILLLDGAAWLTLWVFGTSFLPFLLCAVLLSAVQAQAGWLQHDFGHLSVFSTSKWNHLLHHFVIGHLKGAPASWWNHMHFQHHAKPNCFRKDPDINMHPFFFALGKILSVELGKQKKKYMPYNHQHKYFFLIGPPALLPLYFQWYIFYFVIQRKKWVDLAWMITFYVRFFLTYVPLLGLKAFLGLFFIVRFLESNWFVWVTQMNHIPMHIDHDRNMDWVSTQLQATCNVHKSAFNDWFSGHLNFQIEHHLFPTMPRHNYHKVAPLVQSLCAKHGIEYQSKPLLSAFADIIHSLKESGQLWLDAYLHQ
Kind of assay: In vitro cell-based assay for desaturase activity (HepG2), D5D. On the procedure:
(§2) HepG2 cells were seeded in 96-well cell culture plates at 100 000 cells/well and incubated overnight in DMEM supplemented with 10% fetal bovine serum, 100 U/mL penicillin, and 100 μg/mL streptomycin in 5% CO2 at 37°C. The cells were washed twice with 200 μL of PBS and incubated with the test compounds in DMEM with 0.1% fatty acid free BSA for 30 min. Then, 0.1 μCi/well of [^14C]-labeled DGLA, linoleic acid, and stearic acid (ARC, St. Louis, MO) were added for each desaturase assay. After incubation for 3 h at 37°C, the cells were washed 3 times with 200 μL of PBS to remove [^14C]-labeled substrates in the medium and 0.63 N of NaOH was added to saponify fatty acids. Radioactive substrates and products were extracted, separated, and analyzed using the method as described above.

In the next assay the target is T3, human D6D (Homo sapiens, UniProt O95864).
T3 construct: endogenous in cells; host or cells: HepG2
T3 sequence (O95864 1-444): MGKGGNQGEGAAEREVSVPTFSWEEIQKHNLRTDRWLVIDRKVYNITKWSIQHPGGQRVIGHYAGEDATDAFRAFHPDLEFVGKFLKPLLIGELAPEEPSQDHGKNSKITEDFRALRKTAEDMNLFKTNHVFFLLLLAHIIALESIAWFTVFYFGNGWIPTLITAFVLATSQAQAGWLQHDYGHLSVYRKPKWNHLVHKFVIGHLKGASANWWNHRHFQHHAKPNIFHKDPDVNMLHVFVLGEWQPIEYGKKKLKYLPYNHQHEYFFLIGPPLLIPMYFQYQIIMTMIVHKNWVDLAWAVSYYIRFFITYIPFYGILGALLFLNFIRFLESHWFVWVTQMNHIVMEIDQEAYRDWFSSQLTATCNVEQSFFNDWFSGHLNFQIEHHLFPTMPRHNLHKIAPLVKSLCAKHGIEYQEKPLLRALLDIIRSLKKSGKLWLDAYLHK
Kind of assay: In vitro cell-based assay for desaturase activity (HepG2), D6D. The protocol: as §2

The next assay has as its target T4, rat D9D (Rattus norvegicus, UniProt P07308).
T4 construct: using hepatic microsomes prepared from SD rats; from tissue; host or cells: liver microsomes of SD rats (CLEA, Japan)
T4 sequence (P07308 1-358): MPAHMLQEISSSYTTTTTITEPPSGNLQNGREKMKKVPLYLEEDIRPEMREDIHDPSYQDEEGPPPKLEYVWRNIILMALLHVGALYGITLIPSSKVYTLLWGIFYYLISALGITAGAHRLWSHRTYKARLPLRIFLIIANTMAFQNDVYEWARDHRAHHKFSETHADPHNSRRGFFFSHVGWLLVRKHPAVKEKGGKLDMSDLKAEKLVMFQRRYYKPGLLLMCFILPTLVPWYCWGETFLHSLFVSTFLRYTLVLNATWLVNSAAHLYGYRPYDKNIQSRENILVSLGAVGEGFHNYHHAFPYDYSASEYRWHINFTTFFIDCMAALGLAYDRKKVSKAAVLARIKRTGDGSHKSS
Kind of assay: In vitro enzyme assay for desaturase activity (hepatic microsomes), D9D. In kind it is biochemical. On the procedure:
as §1

With `O=C1Cc2c(nc(OCC(F)(F)C(F)(F)F)n(-c3ccc(OCC(F)(F)F)cc3)c2=O)N1` [Compound-326, 2-(2,2,3,3,3-Pentafluoropropoxy)-3-[4-(2,2,2-trifluoroethoxy)phenyl]-5,7-dihydro-3H-pyrrolo[2,3-d]pyrimidine-4,6-dione], the daily calorie intake entry in the assay with DIO mice (10 mg/kg p.o., 11 weeks) is given as “slightly decreased until day 21, followed by a trend toward increase”. Also, the cumulative calorie intake entry in the assay on DIO mice (10 mg/kg p.o., 11 weeks (data not shown)) is recorded as “no appreciable change”. In the assay with DIO mice (10 mg/kg p.o., 11 weeks, from day 21 until day 77), the BW entry is “sustained and significant BW reduction”. The “white adipose tissue (WAT) depot mass” value in the assay on DIO mice (10 mg/kg, 11 weeks, mesenteric fat p≤0.05, subcutaneous and epididymal fat p≤0.01 vs vehicle) is on record as “marked decrease”. Also, the “inhibition of D6D activity” value against rat D6D and at human D6D was “almost no inhibition” in each case. Further, the half-inhibitory concentration (IC50) was more than 10 µM against rat D6D (Enzyme (hepatic microsomes)); 0.022 µM against human D5D; more than 10 µM against human D6D (Cell-based (HepG2)); more than 10 µM against rat D9D (Enzyme (hepatic microsomes), rat). In addition, the “effect on D9D activity” value on rat D9D (species not given) is “no effect”.
